These results are taken from US20230135152A1 (ACURASTEM INCORPORATED, priority 2020, published 2023).

Each structure is given as a SMILES string. A value given as a limit tells only on which side of the number the result lay.

The target in this assay is PIKFYVE (Homo sapiens, UniProt Q9Y2I7). Description: PIKFYVE assay (luciferase ADP-Glo kinase assay, Promega). Format: biochemical. Here is the method:
The activity of Compounds 1-20 was measured using a PIKFYVE assay (luciferase ADP-Glo kinase assay available from Promega Corp. of Madison, Wis.).
The activity of Compounds 39-90 was also measured using a PIKFYVE assay (luciferase ADP-Glo kinase assay available from Promega Corp. of Madison, Wis.).
The activity of Compounds 93-347 was also measured using a PIKFYVE assay (luciferase ADP-Glo kinase assay available from Promega Corp. of Madison, Wis.).

Sequence of PIKFYVE (Q9Y2I7 whole entry): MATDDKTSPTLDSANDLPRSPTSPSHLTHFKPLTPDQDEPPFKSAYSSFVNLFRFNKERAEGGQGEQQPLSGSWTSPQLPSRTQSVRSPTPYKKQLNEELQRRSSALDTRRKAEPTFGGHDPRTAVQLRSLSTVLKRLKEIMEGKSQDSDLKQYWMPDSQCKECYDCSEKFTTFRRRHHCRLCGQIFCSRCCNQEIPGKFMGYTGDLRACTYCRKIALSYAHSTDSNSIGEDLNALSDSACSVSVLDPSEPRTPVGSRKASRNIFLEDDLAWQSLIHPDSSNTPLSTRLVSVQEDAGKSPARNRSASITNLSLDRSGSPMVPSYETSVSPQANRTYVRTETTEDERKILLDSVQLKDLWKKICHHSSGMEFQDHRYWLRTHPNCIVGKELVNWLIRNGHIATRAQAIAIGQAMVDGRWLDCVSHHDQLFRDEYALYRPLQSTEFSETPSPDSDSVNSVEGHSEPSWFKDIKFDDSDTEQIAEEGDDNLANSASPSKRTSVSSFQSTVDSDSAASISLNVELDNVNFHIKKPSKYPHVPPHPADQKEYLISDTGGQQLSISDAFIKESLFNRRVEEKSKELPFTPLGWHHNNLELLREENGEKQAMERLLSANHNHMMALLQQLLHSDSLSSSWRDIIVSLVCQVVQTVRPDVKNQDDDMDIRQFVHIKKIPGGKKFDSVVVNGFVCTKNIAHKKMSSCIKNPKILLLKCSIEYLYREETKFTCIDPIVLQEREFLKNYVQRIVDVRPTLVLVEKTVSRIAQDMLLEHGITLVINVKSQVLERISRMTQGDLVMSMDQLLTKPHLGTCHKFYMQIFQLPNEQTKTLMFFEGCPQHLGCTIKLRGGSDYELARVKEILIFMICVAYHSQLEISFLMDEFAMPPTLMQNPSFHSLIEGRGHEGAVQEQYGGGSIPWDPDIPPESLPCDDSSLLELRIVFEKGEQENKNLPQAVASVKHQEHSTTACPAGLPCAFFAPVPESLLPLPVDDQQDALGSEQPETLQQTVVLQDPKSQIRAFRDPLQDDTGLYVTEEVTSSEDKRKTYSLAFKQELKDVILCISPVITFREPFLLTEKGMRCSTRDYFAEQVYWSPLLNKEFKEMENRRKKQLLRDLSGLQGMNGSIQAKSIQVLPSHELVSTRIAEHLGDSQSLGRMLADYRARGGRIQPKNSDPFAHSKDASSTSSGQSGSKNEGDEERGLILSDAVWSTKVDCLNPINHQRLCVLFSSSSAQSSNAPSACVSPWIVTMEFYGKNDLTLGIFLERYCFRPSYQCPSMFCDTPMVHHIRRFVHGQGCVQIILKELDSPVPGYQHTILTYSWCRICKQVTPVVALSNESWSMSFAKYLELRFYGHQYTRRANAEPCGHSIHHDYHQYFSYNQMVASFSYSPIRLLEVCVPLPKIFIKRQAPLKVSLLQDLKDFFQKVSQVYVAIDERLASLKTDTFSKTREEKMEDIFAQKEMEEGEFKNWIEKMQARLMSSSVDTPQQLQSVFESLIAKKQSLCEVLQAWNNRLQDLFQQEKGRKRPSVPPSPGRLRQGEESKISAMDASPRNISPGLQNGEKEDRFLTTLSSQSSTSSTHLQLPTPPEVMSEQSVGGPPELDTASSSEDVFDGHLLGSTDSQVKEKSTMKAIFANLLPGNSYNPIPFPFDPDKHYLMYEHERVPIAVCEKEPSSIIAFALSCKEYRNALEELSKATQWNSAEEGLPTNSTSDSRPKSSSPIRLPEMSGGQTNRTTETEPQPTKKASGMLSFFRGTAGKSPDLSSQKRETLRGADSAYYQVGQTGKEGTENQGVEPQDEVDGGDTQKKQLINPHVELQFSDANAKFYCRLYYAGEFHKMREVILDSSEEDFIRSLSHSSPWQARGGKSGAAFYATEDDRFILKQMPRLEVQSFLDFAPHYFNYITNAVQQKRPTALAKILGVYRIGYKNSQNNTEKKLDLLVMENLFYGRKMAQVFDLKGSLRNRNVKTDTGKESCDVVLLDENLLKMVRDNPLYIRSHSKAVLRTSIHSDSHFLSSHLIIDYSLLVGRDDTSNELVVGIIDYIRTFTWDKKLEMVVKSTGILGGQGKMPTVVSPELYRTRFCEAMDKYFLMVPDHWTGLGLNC

With `Cc1cccc(-c2ccn(-c3cc(N4CCOCC4)nc(OCC4(C)COC4)n3)n2)c1` [Compound 67], the IC50 (in general, the midpoint of a concentration-inhibition curve) (Table 2) is less than 5 nM.
On the same count and under the same terms, then `Cn1cc(CCOc2nc(N3CCOCC3)cc(-n3ccc(-c4ccccc4)n3)n2)cn1` [Compound 73], with less than 5 nM.
With `Cc1cccc(-c2ccn(-c3cc(N4CC[C@H]5OCC[C@H]54)nc(C(O)CO)n3)n2)c1` (stereo partly drawn) [Compound 151, 1-(4-((3aR,6aR)-hexahydro-4H-furo[3,2-b]pyrrol-4-yl)-6-(3-(m-tolyl)-1H-pyrazol-1-yl)pyrimidin-2-yl)ethane-1,2-diol], the IC50 (Table 3) lay within 10 to 100 nM.
Still for that read-out and setting: the figure for `CN(C)C(=O)c1cc(-c2ccccc2)nn1-c1cc(N2CCOCC2)nc(OCCc2cnn(C)c2)n1` [Compound 222, N,N-dimethyl-1-(2-(2-(1-methyl-1H-pyrazol-4-yl)ethoxy)-6-morpholinopyrimidin-4-yl)-3-phenyl-1H-pyrazole-5-carboxamide] is 100 to 5000 nM; for `Cc1c2ccc(CO)cc2nn1-c1cc(N2CCOCC2)nc(OCCc2cnn(C)c2)n1` [Compound 255, (3-methyl-2-(2-(2-(1-methyl-1H-pyrazol-4-yl)ethoxy)-6-morpholinopyrimidin-4-yl)-2H-indazol-6-yl)methanol] it is 10 to 100 nM.
Turning to `Clc1ccc(-c2ccn(-c3cc(N4CCOCC4)nc(OCCc4ccccn4)n3)n2)cc1` [Compound 40], the IC50 (Table 2) fell in the range of 101 to 1000 nM.
Regarding `CO[C@@H](CO)c1nc(N2CCOCC2)cc(-n2nc(-c3c[nH]c4ncccc34)cc2C)n1` [Compound 285, (R)-2-methoxy-2-(4-(5-methyl-3-(1H-pyrrolo[2,3-b]pyridin-3-yl)-1H-pyrazol-1-yl)-6-morpholinopyrimidin-2-yl)ethan-1-ol], the IC50 (Table 3) lay in the range of 10 to 100 nM.
The molecule `OCc1nc(N2CCOCC2)cc(-n2ccc(-c3ccccc3)n2)n1` [Compound 84] gave an IC50 (Table 2) of 5 to 100 nM.
On the same count and under the same terms, then `Cn1cc(CCOc2nc(N3CCOCC3)cc(-n3ccc(-c4cccc(CO)c4)n3)n2)cn1` [Compound 89], with less than 5 nM.
`CO[C@@H](CO)c1nc(N2CCOCC2)cc(-n2nc(-c3c[nH]c4cccnc34)cc2C)n1` [Compound 291, (R)-2-methoxy-2-(4-(5-methyl-3-(1H-pyrrolo[3,2-b]pyridin-3-yl)-1H-pyrazol-1-yl)-6-morpholinopyrimidin-2-yl)ethan-1-ol] displayed an IC50 (Table 3) of 100 to 5000 nM.
For the setting “Table 2”, `Cc1cn(-c2cc(N3CCOCC3)nc(OCCc3cnn(C)c3)n2)nc1-c1ccccc1` [Compound 63, 4-(2-(2-(1-methyl-1H-pyrazol-4-yl)ethoxy)-6-(4-methyl-3-phenyl-1H-pyrazol-1-yl)pyrimidin-4-yl)morpholine] returned an IC50 of 101 to 1000 nM.
Regarding `Cc1cccc(-c2ccn(-c3cc(N4CCOCC4)nc(NCCc4ccccn4)n3)n2)c1` [Compound 46, 4-morpholino-N-(2-(pyridin-2-yl)ethyl)-6-(3-(m-tolyl)-1H-pyrazol-1-yl)pyrimidin-2-amine], for the setting “Table 2”, the IC50 is 5 to 100 nM.
For the molecule `CO[C@H](CO)c1nc(N2CCOCC2)cc(-n2ccc(-c3cnc4ccccn34)n2)n1` [Compound 282, (S)-2-(4-(3-(imidazo[1,2-a]pyridin-3-yl)-1H-pyrazol-1-yl)-6-morpholinopyrimidin-2-yl)-2-methoxyethan-1-ol], the IC50 (Table 3) lay in the range of 100 to 5000 nM.
Where the note is “Table 3”, `CO[C@@H](CO)c1nc(N2CCOCC2)cc(-n2ccc(-c3cccc(C)c3C)n2)n1` [Compound 265, (R)-2-(4-(3-(2,3-dimethylphenyl)-1H-pyrazol-1-yl)-6-morpholinopyrimidin-2-yl)-2-methoxyethan-1-ol] yielded an IC50 of 100 to 5000 nM.
The same measure, in the same setting: then `Cc1cccc(N2CC(C)N(c3cc(N4CCOCC4)nc(OCCc4cnn(C)c4)n3)C2=O)c1` (stereo not shown) [Compound 246, 4-methyl-3-(2-(2-(1-methyl-1H-pyrazol-4-yl)ethoxy)-6-morpholinopyrimidin-4-yl)-1-(m-tolyl)imidazolidin-2-one], with 100 to 5000 nM; and `CO[C@H](C)c1cccc(-c2ccn(-c3cc(N4CCOCC4)nc(OCCc4cnn(C)c4)n3)n2)c1` (single isomer, unassigned) [Compound 340], with 10 to 100 nM; and `Cc1cc(-c2ccccc2)nn1-c1cc(N2CCOCC2)c2[nH]ccc2n1` [Compound 243, 4-(5-(5-methyl-3-phenyl-1H-pyrazol-1-yl)-1H-pyrrolo[3,2-b]pyridin-7-yl)morpholine], with 100 to 5000 nM.
As to `Cn1cc(CCOc2nc(N3CCOCC3)cc(-n3ccc(C4CCCCC4)n3)n2)cn1` [Compound 196, 4-(6-(3-cyclohexyl-1H-pyrazol-1-yl)-2-(2-(1-methyl-1H-pyrazol-4-yl)ethoxy)pyrimidin-4-yl)morpholine], the IC50 (Table 3) is greater than 5000 nM.
The same measure, in the same setting: the figure for `CO[C@H](CO)c1nc(N2CCOCC2)cc(-n2nc(-c3cnc4ccccn34)cc2C)n1` [Compound 280, (S)-2-(4-(3-(imidazo[1,2-a]pyridin-3-yl)-5-methyl-1H-pyrazol-1-yl)-6-morpholinopyrimidin-2-yl)-2-methoxyethan-1-ol] is 100 to 5000 nM.
For the molecule `c1cc(-c2cc(N3CCOCC3)nc(OCC3CCCO3)n2)n[nH]1` (stereo not shown) [Compound 45, 4-(6-(1H-pyrazol-3-yl)-2-((tetrahydrofuran-2-yl)methoxy)pyrimidin-4-yl)morpholine], the IC50 (Table 2) fell in the range of 101 to 1000 nM.
With `Cn1cc(CCOc2nc(N3CCOCC3)cc(-n3ccc(C4CCC4)n3)n2)cn1` [Compound 192, 4-(6-(3-cyclobutyl-1H-pyrazol-1-yl)-2-(2-(1-methyl-1H-pyrazol-4-yl)ethoxy)pyrimidin-4-yl)morpholine], the IC50 (Table 3) was in the range of 100 to 5000 nM.
The same measure, in the same setting: then `CN(C)Cc1ccc2nn(-c3cc(N4CCOCC4)nc(OCCc4cnn(C)c4)n3)cc2c1` [Compound 253, N,N-dimethyl-1-(2-(2-(2-(1-methyl-1H-pyrazol-4-yl)ethoxy)-6-morpholinopyrimidin-4-yl)-2H-indazol-5-yl)methanamine], with 10 to 100 nM; and `CO[C@@H](CO)c1nc(N2CCOCC2)cc(-n2ccc(-c3cc(C)ccc3C)n2)n1` (single isomer, unassigned) [Compound 342], with 10 to 100 nM; and `Cn1cc(CCOc2nc(Oc3cc(-c4ccccc4)n(C)n3)cc(N3CCOCC3)n2)cn1` [Compound 213, 4-(2-(2-(1-methyl-1H-pyrazol-4-yl)ethoxy)-6-((1-methyl-5-phenyl-1H-pyrazol-3-yl)oxy)pyrimidin-4-yl)morpholine], with 100 to 5000 nM.
The same measure, in the same setting: the figure for `CO[C@H](CO)c1nc(N2CCOCC2)cc(-n2nc(-c3c[nH]c4cccnc34)cc2C)n1` [Compound 290, (S)-2-methoxy-2-(4-(5-methyl-3-(1H-pyrrolo[3,2-b]pyridin-3-yl)-1H-pyrazol-1-yl)-6-morpholinopyrimidin-2-yl)ethan-1-ol] is 100 to 5000 nM; for `CO[C@H](CO)c1nc(N2CCOCC2)cc(-n2ccc(-c3cccc4c3OCO4)n2)n1` [Compound 266, (S)-2-(4-(3-(benzo[d][1,3]dioxol-4-yl)-1H-pyrazol-1-yl)-6-morpholinopyrimidin-2-yl)-2-methoxyethan-1-ol] it is 100 to 5000 nM; for `CCc1cc(-c2ccccc2)nn1-c1cc(N2CCOCC2)nc([C@@H](CO)OC)n1` [Compound 294, (S)-2-(4-(5-ethyl-3-phenyl-1H-pyrazol-1-yl)-6-morpholinopyrimidin-2-yl)-2-methoxyethan-1-ol] it is 10 to 100 nM.
On the same count and under the same terms, the figure for `Cc1c2cc(CN(C)C)ccc2nn1-c1cc(N2CCOCC2)nc(OCCc2cnn(C)c2)n1` [Compound 254, N,N-dimethyl-1-(3-methyl-2-(2-(2-(1-methyl-1H-pyrazol-4-yl)ethoxy)-6-morpholinopyrimidin-4-yl)-2H-indazol-5-yl)methanamine] is 100 to 5000 nM.
